The text below walks through data of patent US8450479B2, “3-substituted-4-oxo-3,4-dihydro-imidazo[5,1-d][1,2,3,5-tetrazine-8-carboxylic acid amides and their use” (Pharminox Limited, priority 2007, dated 2013).

One may read the GI50 as the concentration giving 50% growth inhibition.

Molecules are shown by their SMILES. “And” between values parts separate entries of the source, which are not always exact repeats. Identical values can stand only once. Like-named read-outs stand apart in the source and are kept apart here.

What all share (type): cell-based
One assay relates to Glioma SNB19V (MGMT−). As to the kind of experiment: MTT assay for 7-day toxicity assay. As to conditions: Glioma SNB19V (MGMT−), read-out: GI50. The procedure, abridged:
(§1)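 MGMT-transfected or vector-control glioma cells were seeded at 650 cells/well, attached overnight, and exposed for 7 days at 37 °C to compound at final 0.5–1000 μM. Viability was read by MTT (0.4 mg/mL, 4 h) formazan absorbance, with a day-0 plate included.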

In the next assay the test system is Glioma U373M (MGMT+). As to the kind of experiment: MTT assay for 7-day toxicity assay. Conditions: Glioma U373M (MGMT+), read-out: GI50. A digest of the protocol: as §1
For orientation: Formazan colour is commonly taken as a measure of viable cells.

The next assay relates to Glioma U373V (MGMT low). Description: MTT assay for 7-day toxicity assay. As to conditions: for GI50: Glioma U373V (MGMT low), read-out: GI50. The procedure, abridged: as §1
For assay [1], the system named is MGMT+ lines SNB 19M and U373M. As to the kind of experiment: MTT assay, MGMT+ glioma lines. From the text:
This assay was first described in Mosmann, T., 1983, “Rapid colorimetric assay for cellular growth and survival: Application to proliferation and cytotoxicity assays”, Journal of Immunological Methods, Vol. 65, Nos. 1-2, pp. 55-63.
Glioma cell lines, SNB19 and U373, both MGMT transfected (i.e., SNB19M and U373M) and vector controls (i.e., SNB19V and U373V); colorectal carcinoma cell lines, HCT116, HT29, and DLD1; melanoma cell line, SKMEL-28; breast cell line, MCF-7; and normal human fetal lung fibroblast cell line, MRC-5; were harvested at 60-80% confluence—during the logarithmic phase of growth.
Following harvesting, cells in suspension were gently syringed through a 23 gauge needle to obtain a near-single cell suspension. The desired cell seeding densities were used and added into 96-well plates in 180 μL culture medium if only one test compound was to be added, or 160 μL if two test compounds were to be added in combination, which were allowed to attach at 37° C. (5% CO2) overnight. For the 7 day assay, the cell seeding density for different cell lines was as follows: SNB19V, SNB19M: 650 cells/well; U373V, U373M: 650 cells/well; SNB19VR, U373VR: 650 cells/well; HCT116, DLD-1, SKMEL-28, MRC-5, MCF-7: 400 cells/well.
The two peripheral lanes were used as blank wells (cell free) and filled with 200 μL of medium in order to minimise medium evaporation from the plate. A separate time zero (T0) plate was set up alongside other plates. […]
After incubation at 37° C., 5% CO2 for 7 days (or immediately for the day 0 plate), cell viability was quantified using the MTT assay. […]
The intensity of absorbance is directly proportional to cell viability. A linear relationship exists between cell number and the amount of formazan and so the mean absorbance determined for each well of the same concentration can be used as a quantitative measure of viable cells compared to the controls. […]

Another assay relates to Glioma SNB19M (MGMT+). As to the kind of experiment: MTT assay for 7-day toxicity assay. As to conditions: Glioma SNB19M (MGMT+); read-out: GI50. The procedure, abridged:
as §1

Setting [2] is: 168 h, 7-day MTT, single determinations.
[3] abbreviates: 7-day MTT, single determinations.

With `CSCn1nnc2c(C(N)=O)ncn2c1=O` [KK-001, 3-(Methylthio)methyl-8-carbamoylimidazotetrazin-4-one], the GI50 in the assay on Glioma SNB19V (MGMT−) (setting [2]) stood at 118 µM; with Glioma SNB19V (MGMT−) (setting [3]), 96.5 µM; in the assay on Glioma U373M (MGMT+) (setting [2]), 59 µM; in the assay on Glioma U373M (MGMT+) (setting [3]), 54 µM; in the assay on Glioma U373V (MGMT low) (setting [2]), 45 µM; with Glioma U373V (MGMT low) (setting [3]), 73.4 µM. The “activity compared with TMZ, in words” value in assay [1] is “more active than TMZ”.

In the case of `CCC(Cn1nnc2c(C(N)=O)ncn2c1=O)=NOC` [XX-001, 3-(2-Methoxyimino-butyl)-4-oxo-3,4-dihydro-imidazo[5,1-d][1,2,3,5]tetrazine-8-carboxylic acid amide], the GI50 in the assay with Glioma SNB19M (MGMT+) is 47.2 µM and 47.9 µM; in the assay with Glioma U373V (MGMT low) it was 18.5 µM and 10.6 µM. Further, the “activity compared with TMZ, in words” value in the assay with Glioma U373V (MGMT low) (MGMT− glioma cell line U373V) is given as “enhanced activity”; in assay [1], “more active than TMZ”.

As to `NC(=O)c1ncn2c(=O)n(CNC(=O)OCC3c4ccccc4-c4ccccc43)nnc12` [WW-001, (8-Carbamoyl-4-oxo-imidazo[5,1-d][1,2,3,5]tetrazin-3-ylmethyl)-carbamic acid 9H-fluoren-9-ylmethyl ester], the GI50 with Glioma SNB19M (MGMT+) is 71.2 µM and 56 µM; in the assay on Glioma SNB19V (MGMT−), 64.8 µM and 67.8 µM; in the assay with Glioma U373M (MGMT+), 50 µM and 62.5 µM; in the assay with Glioma U373V (MGMT low) it was 35.8 µM and 60.1 µM. Moreover, the “activity compared with TMZ, in words” value in assay [1] was “more active than TMZ”.
